ChEMBL document CHEMBL1148064, “Nepheliosyne A, new C47 acetylenic acid from the Okinawan marine sponge Xestospongia sp” (1994)

What was measured:
[1] = tested on: KB; test: Cytotoxicity against human KB cells at 20 ug/cm'3; assay type: functional
[2] = tested on: L1210; test: Cytotoxicity against mouse L1210 cells at 20 ug/cm'3; assay type: functional

## C#CC(O)/C=C/C(O)C/C=C/CC(O)C#CC(O)C#CC(O)CCC/C=C\CCCCCCCCC(O)C(=O)CCCCCCCCCC(O)CC(O)C#CC(=O)O (configuration not stated) [NEPHELIOSYNE A]
[1]
  Activity: 14%
[2]
  Activity: 40%
